This passage reports IC50 results from patent US20240150340A1, “CDK Inhibitors And Their Use As Pharmaceuticals” (Prelude Therapeutics Incorporated, priority 2022, published 2024).

One experiment deals with T1, CDK4/Cyclin D1 (Homo sapiens, UniProt P11802).
T1 construct: purchased ProQinase; host or cells: insect cell
Put plainly: CDK4/CyclinD1 Enzymatic Activity Assay (TR-FRET). The class given is biochemical. To be noted: ATP 2 mM final, read-out: CDK4_D1 IC50. The protocol:
CDK4/CyclinD1 Enzymatic Activity Assay
The inhibitory activity of compounds was evaluated in vitro using TR-FRET assay with white 384-well low volume microplate (Greiner Bio-One). CDK4/Cyclin D1 catalyzed phosphorylation of peptide in the presence and absence of compounds was measured and used in IC50 determination. Recombinant protein complex CDK4/Cyclin D1, expressed from insect cell, was purchased from ProQinase. Testing compounds were dissolved in DMSO at 1 mM and tested in 9-dose IC50 mode. The reaction mixture was prepared by mixing CDK4/CyclinD1 (1 nM final), ULight-4E-BP1 (100 nM final, Perkinelmer, TRF0128-D), and ATP (2 mM final) in assay buffer (20 mM of HEPES pH 7.4, 1 mM of EGTA, 0.05% BSA, 0.005% Tween 20, and 1 mM TCEP). The compound of interest in DMSO was added to each well in 3-fold serial dilution by the dispenser (TECAN D300E) to make a 9.9 μL of reaction mixture. After 20 minutes preincubation at room temperature, 0.1 μL MgCl2 (10 mM final) was added to initiate the reaction. Following a 45-minute incubation at 37° C., the reaction was stopped by addition of 2 μL of quenching buffer consisting of Lance detection buffer (Perkinelmer CR97-100C), LANCE Ultra Europium-anti-P-4E-BP1 (Perkinelmer, TRF0216-D), EDTA, and incubated at room temperature for additional 60 minutes in dark. The reaction signal was measured by Envision multimode plate reader (PerkinElmer, 2102-0010). IC50 values were determined by fitting the data to the standard 4 parameters with Hill Slope using GraphPad Prism software.
For orientation: TR-FRET usually uses a lanthanide donor and a delayed reading to cut background.

The next experiment has as its target T2, CDK2/Cyclin E2 (Homo sapiens, UniProt P24941).
T2 construct: Recombinant protein complex CDK2/Cyclin E2, expressed from insect cell, was purchased from ProQinase
Briefly: CDK2/CyclinE2 Enzymatic Activity Assay (TR-FRET). The class given is biochemical. To be noted: ATP 1 mM final, read-out: CDK2_E1 IC50. The essentials: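 Recombinant insect-cell CDK2/Cyclin E2 (1 nM) phosphorylated ULight-4E-BP1 (50 nM) with 1 mM ATP in HEPES pH 7.4 buffer, after 20 min compound preincubation; MgCl2 (10 mM) started the 45 min reaction at 37° C. Europium anti-phospho-4E-BP1 TR-FRET read; 9-dose IC50 by 4-parameter fit.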

The subject of another experiment is OVCAR3 p-RB. Put plainly: pRB ICW Assay in OVCAR3 Cells. The class given is cell-based. To be noted: Homo sapiens, OVCAR-3, incubated with compound for 2 hours. The essentials: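 In-Cell Western on OVCAR3: phospho-RB antibody signal with DRAQ5 counterstain read at 700 and 800 nm after fixation. Compounds were applied for 2 h at 37° C. as 9-point ½-log dilutions in duplicate; 10 μM reference compound defined full inhibition.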

A value given as a limit tells only on which side of the number the result lay.

T1 sequence (P11802 whole entry): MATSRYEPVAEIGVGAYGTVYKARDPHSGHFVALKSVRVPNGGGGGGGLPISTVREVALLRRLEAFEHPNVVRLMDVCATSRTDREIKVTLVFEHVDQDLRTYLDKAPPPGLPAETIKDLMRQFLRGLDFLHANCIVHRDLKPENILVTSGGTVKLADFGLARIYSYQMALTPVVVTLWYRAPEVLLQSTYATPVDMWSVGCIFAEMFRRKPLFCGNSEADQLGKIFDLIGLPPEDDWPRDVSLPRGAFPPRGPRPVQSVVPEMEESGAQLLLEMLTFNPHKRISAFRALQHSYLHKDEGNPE
T1 sequence (P24385 whole entry partner): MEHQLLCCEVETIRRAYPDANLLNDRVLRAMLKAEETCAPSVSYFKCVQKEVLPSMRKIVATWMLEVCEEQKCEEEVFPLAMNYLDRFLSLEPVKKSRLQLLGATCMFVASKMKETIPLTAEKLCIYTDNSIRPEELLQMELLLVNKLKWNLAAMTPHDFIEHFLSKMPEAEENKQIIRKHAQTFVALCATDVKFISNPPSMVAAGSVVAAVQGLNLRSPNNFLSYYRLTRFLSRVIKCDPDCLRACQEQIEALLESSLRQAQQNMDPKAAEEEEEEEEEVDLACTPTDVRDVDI

Regarding `Cc1sc(-c2nc(N[C@H]3CCN(S(=O)(=O)c4cnn(C)c4)C[C@H]3F)ncc2C(F)(F)F)cc1C#N` [Example 30, 5-(2-(((3R,4S)-3-fluoro-1-((1-methyl-1H-pyrazol-4-yl)sulfonyl)piperidin-4-yl)amino)-5-(trifluoromethyl)pyrimidin-4-yl)-2-methylthiophene-3-carbonitrile], the IC50 at CDK4/Cyclin D1, on CDK2/Cyclin E2 and with OVCAR3 p-RB was ≤ 100 nM in each case.

With `C[C@@H]1CN(S(=O)(=O)c2cn(C)cn2)CC[C@@H]1Nc1ncc(C(F)(F)F)c(-c2ncc(C(C)(O)C(F)F)s2)n1` (stereo partly drawn) [Example 104, 1,1-difluoro-2-(2-(2-(((3R,4S)-3-methyl-1-((1-methyl-1H-imidazol-4-yl)sulfonyl)piperidin-4-yl)amino)-5-(trifluoromethyl)pyrimidin-4-yl)thiazol-5-yl)propan-2-ol], the IC50 at CDK4/Cyclin D1, at CDK2/Cyclin E2 and in the experiment with OVCAR3 p-RB was ≤ 100 nM throughout.

As for `Cc1cnc(-c2nc(NC3CCN(S(=O)(=O)c4cnn(C)c4)CC3)ncc2C(F)(F)F)s1` [Example 2, N-(1-((1-methyl-1H-pyrazol-4-yl)sulfonyl)piperidin-4-yl)-4-(5-methylthiazol-2-yl)-5-(trifluoromethyl)pyrimidin-2-amine], the IC50 on CDK4/Cyclin D1, on CDK2/Cyclin E2 and in the experiment on OVCAR3 p-RB was ≤ 100 nM throughout.

In the case of `C[C@@H]1CN(S(=O)(=O)c2c[nH]cn2)CC[C@@H]1Nc1ncc(C(F)(F)F)c(-c2cc(C(N)=O)cs2)n1` [Example 21, 5-(2-(((3R,4S)-1-((1H-imidazol-4-yl)sulfonyl)-3-methylpiperidin-4-yl)amino)-5-(trifluoromethyl)pyrimidin-4-yl)thiophene-3-carboxamide], the values for the 50% inhibitory concentration (IC50) on CDK4/Cyclin D1, on CDK2/Cyclin E2 and in the experiment on OVCAR3 p-RB were 100 to 500 nM, ≤ 100 nM and 100 to 500 nM, respectively.

Regarding `Cc1sc(-c2nc(NC3CCN(S(C)(=O)=O)CC3)ncc2C(F)(F)F)cc1C(N)=O` [Example 70, 2-methyl-5-(2-((1-(methylsulfonyl)piperidin-4-yl)amino)-5-(trifluoromethyl)pyrimidin-4-yl)thiophene-3-carboxamide], the IC50 at CDK4/Cyclin D1, at CDK2/Cyclin E2 and in the experiment on OVCAR3 p-RB was ≤ 100 nM throughout.

Take `CC(C)(O)Cc1cnc(-c2nc(NC3CCN(S(C)(=O)=O)CC3)ncc2C(F)(F)F)s1` [Example 107, 2-Methyl-1-(2-(2-((1-(methylsulfonyl)piperidin-4-yl)amino)-5-(trifluoromethyl)pyrimidin-4-yl)thiazol-5-yl)propan-2-ol]: the IC50 at CDK4/Cyclin D1, at CDK2/Cyclin E2 and in the experiment on OVCAR3 p-RB was ≤ 100 nM throughout.

As for `Cc1sc(-c2nc(NC3CCN(S(=O)(=O)c4cnn(C)c4)CC3)ncc2C(F)(F)F)cc1C#N` [Example 72, 2-methyl-5-(2-((1-((1-methyl-1H-pyrazol-4-yl)sulfonyl)piperidin-4-yl)amino)-5-(trifluoromethyl)pyrimidin-4-yl)thiophene-3-carbonitrile], the IC50 at CDK4/Cyclin D1, on CDK2/Cyclin E2 and in the experiment with OVCAR3 p-RB was ≤ 100 nM in each case.

`Cc1cnc(-c2nc(N[C@@H]3CCN(S(=O)(=O)c4cn(C)cn4)C[C@H]3F)ncc2C(F)(F)F)s1` [Example 29, N-((3R,4R)-3-fluoro-1-((1-methyl-1H-imidazol-4-yl)sulfonyl)piperidin-4-yl)-4-(5-methylthiazol-2-yl)-5-(trifluoromethyl)pyrimidin-2-amine]: the concentration for half-maximal inhibition (IC50) (usually the concentration that inhibits the measured activity by half) was ≤ 100 nM on CDK4/Cyclin D1, ≤ 100 nM on CDK2/Cyclin E2 and 100 to 500 nM in the experiment on OVCAR3 p-RB.

As to `Cn1cc(S(=O)(=O)N2CC[C@@H](Nc3ncc(C(F)(F)F)c(-c4cc(C(N)=O)c(CC(C)(C)O)s4)n3)[C@H](F)C2)cn1` [Example 48, 5-(2-(((3R,4R)-3-fluoro-1-((1-methyl-1H-pyrazol-4-yl)sulfonyl)piperidin-4-yl)amino)-5-(trifluoromethyl)pyrimidin-4-yl)-2-(2-hydroxy-2-methylpropyl)thiophene-3-carboxamide], the IC50 on CDK4/Cyclin D1, at CDK2/Cyclin E2 and with OVCAR3 p-RB was ≤ 100 nM each time.

For the molecule `Cc1sc(-c2nc(N[C@H]3CCN(S(=O)(=O)c4c[nH]cn4)C[C@H]3C)ncc2C(F)(F)F)cc1C#N` [Example 86, 5-(2-(((3R,4S)-1-((1H-imidazol-4-yl)sulfonyl)-3-methylpiperidin-4-yl)amino)-5-(trifluoromethyl)pyrimidin-4-yl)-2-methylthiophene-3-carbonitrile], the IC50 was > 500 nM on CDK4/Cyclin D1, ≤ 100 nM on CDK2/Cyclin E2 and > 500 nM in the experiment on OVCAR3 p-RB.

With `Cc1cnc(-c2nc(N[C@H]3CCN(S(=O)(=O)c4cn(C)cn4)C[C@H]3F)ncc2C(F)(F)F)s1` [Example 28, N-((3R,4S)-3-fluoro-1-((1-methyl-1H-imidazol-4-yl)sulfonyl)piperidin-4-yl)-4-(5-methylthiazol-2-yl)-5-(trifluoromethyl)pyrimidin-2-amine], the IC50 at CDK4/Cyclin D1, at CDK2/Cyclin E2 and in the experiment with OVCAR3 p-RB was ≤ 100 nM each time.

On to `Cn1cnc(S(=O)(=O)N2CC[C@@H](Nc3ncc(C(F)(F)F)c(-c4cc(C(N)=O)ns4)n3)[C@H](F)C2)c1` [Example 66, 5-(2-(((3R,4R)-3-fluoro-1-((1-methyl-1H-imidazol-4-yl)sulfonyl)piperidin-4-yl)amino)-5-(trifluoromethyl)pyrimidin-4-yl)isothiazole-3-carboxamide], for which the IC50 on CDK4/Cyclin D1, at CDK2/Cyclin E2 and in the experiment with OVCAR3 p-RB was ≤ 100 nM each time.

As for `Cc1sc(-c2nc(NC3CCN(S(=O)(=O)c4cnn(C)c4)CC3)ncc2C(F)(F)F)cc1C(N)=O` [Example 71, 2-methyl-5-(2-((1-((1-methyl-1H-pyrazol-4-yl)sulfonyl)piperidin-4-yl)amino)-5-(trifluoromethyl)pyrimidin-4-yl)thiophene-3-carboxamide], the IC50 at CDK4/Cyclin D1, on CDK2/Cyclin E2 and in the experiment with OVCAR3 p-RB was ≤ 100 nM each time.

As to `Cc1cnc(-c2nc(NC3CCN(S(=O)(=O)c4cn(C)cn4)CC3)ncc2C(F)(F)F)s1` [Example 32, N-(1-((1-methyl-1H-imidazol-4-yl)sulfonyl)piperidin-4-yl)-4-(5-methylthiazol-2-yl)-5-(trifluoromethyl)pyrimidin-2-amine], the IC50 at CDK4/Cyclin D1, at CDK2/Cyclin E2 and with OVCAR3 p-RB was ≤ 100 nM each time.

For `C[C@@H]1CN(S(C)(=O)=O)CC[C@@H]1Nc1ncc(C(F)(F)F)c(-c2cc(C(N)=O)cs2)n1` [Example 10, 5-(2-(((3R,4S)-3-methyl-1-(methylsulfonyl)piperidin-4-yl)amino)-5-(trifluoromethyl)pyrimidin-4-yl)thiophene-3-carboxamide], the IC50 at CDK4/Cyclin D1 is 100 to 500 nM; at CDK2/Cyclin E2, ≤ 100 nM; with OVCAR3 p-RB, 100 to 500 nM.

With `Cn1cnc(S(=O)(=O)N2CCC(Nc3ncc(C(F)(F)F)c(-c4ncc(C(O)C(F)(F)F)s4)n3)CC2)c1` (stereo not drawn) [Example 60, 2,2,2-trifluoro-1-(2-(2-((1-((1-methyl-1H-imidazol-4-yl)sulfonyl)piperidin-4-yl)amino)-5-(trifluoromethyl)pyrimidin-4-yl)thiazol-5-yl)ethan-1-ol], the IC50 on CDK4/Cyclin D1, at CDK2/Cyclin E2 and in the experiment on OVCAR3 p-RB was ≤ 100 nM in each case.

`Cn1cc(S(=O)(=O)N2CCC(Nc3ncc(C(F)(F)F)c(-c4ncc(CC(C)(C)O)s4)n3)CC2)cn1` [Example 62, 2-methyl-1-(2-(2-((1-((1-methyl-1H-pyrazol-4-yl)sulfonyl)piperidin-4-yl)amino)-5-(trifluoromethyl)pyrimidin-4-yl)thiazol-5-yl)propan-2-ol]: the IC50 at CDK4/Cyclin D1, on CDK2/Cyclin E2 and in the experiment on OVCAR3 p-RB was ≤ 100 nM each time.

With `CS(=O)(=O)N1CC[C@H](Nc2ncc(C(F)(F)F)c(-c3cc(C(N)=O)cs3)n2)[C@H](F)C1` [Example 7, 5-(2-(((3R,4S)-3-fluoro-1-(methylsulfonyl)piperidin-4-yl)amino)-5-(trifluoromethyl)pyrimidin-4-yl)thiophene-3-carboxamide], the IC50 at CDK4/Cyclin D1, at CDK2/Cyclin E2 and in the experiment on OVCAR3 p-RB was ≤ 100 nM each time.
